As a reminder, the MIC is the least concentration at which growth counts as inhibited. As usually defined, the MIC80 is an inhibitory concentration at the 80% level, which refers to growth in some studies and to a panel of isolates in others.

In brackets after ≈: the same amount, converted by molar mass. Some results are limits rather than exact numbers.

This passage reports MIC and MIC80 results from ChEMBL document CHEMBL3217727, “Berberine azoles as antimicrobial agents: synthesis, biological evaluation and their interactions with human serum albumin” (Medchemcomm, 2013).

Common to all, as to assay type: functional
For one assay, the system named is Bacillus spizizenii. Put plainly: Antimicrobial activity against Bacillus subtilis ATCC 6633 after 24 hrs by microbroth dilution method. To be noted: ATCC 6633, 24 h. Background: Broth dilution looks for growth in wells or tubes with falling amounts of substance.
The subject of the next assay is Saccharomyces cerevisiae. Nature of the assay: Antimicrobial activity against Saccharomyces cerevisiae ATCC 9763 after 24 hrs by microbroth dilution method. Particulars: ATCC 9763, 24 h.
A further assay has as its system Cyberlindnera jadinii. Put plainly: Antimicrobial activity against Candida utilis ATCC 9950 after 24 hrs by microbroth dilution method. Particulars: Williopsis jadinii, ATCC 9950, 24 h.
The subject of the next assay is Candida albicans. Nature of the assay: Antimicrobial activity against Candida albicans ATCC 90029 after 24 hrs by microbroth dilution method. To be noted: ATCC 90029, 24 h.
The next assay has as its system Candida. Nature of the assay: Antimicrobial activity against Candida mycoderma after 24 hrs by microbroth dilution method.
For another assay, the system named is Micrococcus luteus. Nature of the assay: Antimicrobial activity against Micrococcus luteus ATCC 4698 after 24 hrs by microbroth dilution method. To be noted: NCTC 2665, 24 h.
In the next assay the test system is Shigella dysenteriae. Nature of the assay: Antimicrobial activity against Shigella dysenteriae ATCC 51252 after 24 hrs by microbroth dilution method. Particulars: ATCC 51252, 24 h.
The test system of the next assay is Pseudomonas aeruginosa. Nature of the assay: Antimicrobial activity against Pseudomonas aeruginosa ATCC 27853 after 24 hrs by microbroth dilution method. Particulars: ATCC 27853, 24 h.
The subject of another assay is Escherichia coli. Put plainly: Antimicrobial activity against Escherichia coli […] after 24 hrs by microbroth dilution method.
Assay [1] deals with Staphylococcus aureus. Put plainly: Antimicrobial activity against Staphylococcus aureus ATCC 25923 after 24 hrs by microbroth dilution method. Particulars: ATCC 25923, 24 h.
Assay [2] deals with Staphylococcus aureus. Nature of the assay: Antimicrobial activity against methicillin-resistant Staphylococcus aureus N315 after 24 hrs by microbroth dilution method. Particulars: N315, 24 h.
A further assay deals with Proteus vulgaris. Put plainly: Antimicrobial activity against Proteus vulgaris ATCC 8427 after 24 hrs by microbroth dilution method. To be noted: ATCC 8427, 24 h.

For the compound `COc1ccc2cc3[n+](cc2c1OCCN(CCn1cncn1)Cc1ccc(Cl)cc1)CCc1cc2c(cc1-3)OCO2.[Cl-]`, the MIC in the assay with Bacillus spizizenii stood at 8 µg/mL; against Micrococcus luteus it was 16 µg/mL. Moreover, the MIC80 amounted to 32 µg/mL in the assay with Saccharomyces cerevisiae, 16 µg/mL against Cyberlindnera jadinii, 32 µg/mL with Candida albicans and 32 µg/mL in the assay on Candida.

For `COc1ccc2cc3[n+](cc2c1OCCN(CCn1cncn1)Cc1cccc(Cl)c1)CCc1cc2c(cc1-3)OCO2.[Cl-]`, the MIC with Bacillus spizizenii was determined as 16 µg/mL; in the assay on Micrococcus luteus it was 32 µg/mL. Besides, the MIC80 amounted to 32 µg/mL against Saccharomyces cerevisiae, 8 µg/mL with Cyberlindnera jadinii, 16 µg/mL against Candida albicans and 4 µg/mL in the assay with Candida.

On to `COc1ccc2cc3[n+](cc2c1OCCN(CCn1cncn1)Cc1ccccc1Cl)CCc1cc2c(cc1-3)OCO2.[Cl-]`, for which the MIC in the assay with Bacillus spizizenii turned out to be 8 µg/mL; with Micrococcus luteus it was 32 µg/mL. Further, the MIC80 against Saccharomyces cerevisiae was found to be 16 µg/mL; with Cyberlindnera jadinii it was 32 µg/mL; against Candida albicans, 16 µg/mL; with Candida it was 8 µg/mL.

As for `COc1ccc2cc3[n+](cc2c1OCCN(CCn1cncn1)Cc1ccc(Cl)c(Cl)c1)CCc1cc2c(cc1-3)OCO2.[Cl-]`, the MIC against Bacillus spizizenii came out at 8 µg/mL; against Micrococcus luteus, 16 µg/mL. Besides, the MIC80 against Saccharomyces cerevisiae was 32 µg/mL; against Cyberlindnera jadinii, 32 µg/mL; against Candida albicans, 8 µg/mL; with Candida, 4 µg/mL.

Take `COc1ccc2cc3[n+](cc2c1OCCN(CCn1cncn1)Cc1ccc(Cl)cc1Cl)CCc1cc2c(cc1-3)OCO2.[Cl-]`: the MIC was found to be 8 µg/mL in the assay on Bacillus spizizenii and 16 µg/mL with Micrococcus luteus. For the same compound, the MIC80 in the assay with Saccharomyces cerevisiae turned out to be 16 µg/mL; in the assay on Cyberlindnera jadinii it was 16 µg/mL; against Candida albicans it was 4 µg/mL; in the assay with Candida it was 4 µg/mL.

Turning to `COc1ccc2cc3[n+](cc2c1OCCN(CCn1cncn1)Cc1cccc(F)c1)CCc1cc2c(cc1-3)OCO2.[Cl-]`, the figures for the MIC against Bacillus spizizenii and against Micrococcus luteus were 8 µg/mL and 16 µg/mL, respectively. Also, the MIC80 against Saccharomyces cerevisiae stood at 16 µg/mL; against Cyberlindnera jadinii, 8 µg/mL; against Candida albicans, 4 µg/mL; with Candida, 4 µg/mL.

For `COc1ccc2cc3[n+](cc2c1OCCN(CCn1cncn1)Cc1ccccc1F)CCc1cc2c(cc1-3)OCO2.[Cl-]`, the minimal inhibitory concentration (MIC) in the assay with Bacillus spizizenii and against Micrococcus luteus was 8 µg/mL each time. Also, the MIC80 in the assay with Saccharomyces cerevisiae was determined as 16 µg/mL; in the assay on Cyberlindnera jadinii, 16 µg/mL; in the assay on Candida albicans it was 4 µg/mL; against Candida it was 2 µg/mL.

Regarding `Clc1ccc(CN(CCBr)CCn2cncn2)cc1`, the values for the MIC in the assay with Bacillus spizizenii and in the assay on Micrococcus luteus were 256 µg/mL (≈ 745 µM) and 512 µg/mL (≈ 1490 µM), respectively. The MIC80 was determined as 64 µg/mL (≈ 186 µM) against Saccharomyces cerevisiae, 128 µg/mL (≈ 372 µM) with Cyberlindnera jadinii, 128 µg/mL (≈ 372 µM) in the assay on Candida albicans and 256 µg/mL (≈ 745 µM) against Candida.

In the case of `Clc1cccc(CN(CCBr)CCn2cncn2)c1`, the MIC in the assay on Bacillus spizizenii is 256 µg/mL (≈ 745 µM); against Micrococcus luteus it was 64 µg/mL (≈ 186 µM). Further, the MIC80 in the assay on Saccharomyces cerevisiae worked out at 128 µg/mL (≈ 372 µM); with Cyberlindnera jadinii, 256 µg/mL (≈ 745 µM); with Candida albicans, 64 µg/mL (≈ 186 µM); against Candida, 256 µg/mL (≈ 745 µM).

With `Clc1ccc(CN(CCBr)CCn2cncn2)c(Cl)c1`, the MIC against Bacillus spizizenii turned out to be 256 µg/mL (≈ 677 µM); against Micrococcus luteus, 32 µg/mL (≈ 84.6 µM). The MIC80 in the assay on Saccharomyces cerevisiae was determined as 256 µg/mL (≈ 677 µM); with Cyberlindnera jadinii, 256 µg/mL (≈ 677 µM); in the assay with Candida albicans, 32 µg/mL (≈ 84.6 µM); against Candida, 256 µg/mL (≈ 677 µM).

For `Clc1ccc(CN(CCBr)CCn2cncn2)cc1Cl`, the MIC was 256 µg/mL (≈ 677 µM) against Bacillus spizizenii and 32 µg/mL (≈ 84.6 µM) in the assay on Micrococcus luteus. Further, the MIC80 with Saccharomyces cerevisiae was determined as 128 µg/mL (≈ 339 µM); with Cyberlindnera jadinii it was 64 µg/mL (≈ 169 µM); against Candida albicans, 32 µg/mL (≈ 84.6 µM); against Candida, 256 µg/mL (≈ 677 µM).

Turning to `Clc1ccccc1CN(CCBr)CCn1cncn1`, the MIC turned out to be 256 µg/mL (≈ 745 µM) against Bacillus spizizenii and 64 µg/mL (≈ 186 µM) against Micrococcus luteus. Moreover, the MIC80 in the assay with Saccharomyces cerevisiae is 256 µg/mL (≈ 745 µM); in the assay on Cyberlindnera jadinii, 128 µg/mL (≈ 372 µM); in the assay with Candida albicans, 64 µg/mL (≈ 186 µM); against Candida it was 256 µg/mL (≈ 745 µM).

Take `Fc1cccc(CN(CCBr)CCn2cncn2)c1`: the MIC against Bacillus spizizenii was found to be 256 µg/mL (≈ 782 µM); in the assay with Micrococcus luteus it was 64 µg/mL (≈ 196 µM). Further, the MIC80 in the assay with Saccharomyces cerevisiae was found to be 128 µg/mL (≈ 391 µM); in the assay with Cyberlindnera jadinii, 256 µg/mL (≈ 782 µM); with Candida albicans it was 32 µg/mL (≈ 97.8 µM); in the assay on Candida it was 256 µg/mL (≈ 782 µM).

Turning to `Fc1ccc(CN(CCBr)CCn2cncn2)c(F)c1`, the values for the MIC against Bacillus spizizenii and in the assay on Micrococcus luteus were 256 µg/mL (≈ 742 µM) and 32 µg/mL (≈ 92.7 µM), respectively. Also, the MIC80 in the assay on Saccharomyces cerevisiae came to 128 µg/mL (≈ 371 µM); against Cyberlindnera jadinii, 256 µg/mL (≈ 742 µM); against Candida albicans, 32 µg/mL (≈ 92.7 µM); in the assay on Candida it was 256 µg/mL (≈ 742 µM).

For `Fc1ccccc1CN(CCBr)CCn1cncn1`, the figures for the MIC against Bacillus spizizenii and in the assay on Micrococcus luteus were 256 µg/mL (≈ 782 µM) and 64 µg/mL (≈ 196 µM), respectively. The MIC80 was found to be 64 µg/mL (≈ 196 µM) in the assay with Saccharomyces cerevisiae, 128 µg/mL (≈ 391 µM) with Cyberlindnera jadinii, 32 µg/mL (≈ 97.8 µM) with Candida albicans and 256 µg/mL (≈ 782 µM) with Candida.

For the compound `Fc1ccc(CN(CCBr)CCn2ccnc2)c(F)c1`, the minimal inhibitory concentration (MIC) was found to be 128 µg/mL (≈ 372 µM) in the assay on Bacillus spizizenii; 128 µg/mL (≈ 372 µM) against Shigella dysenteriae; 32 µg/mL (≈ 93 µM) against Pseudomonas aeruginosa; 128 µg/mL (≈ 372 µM) in the assay with Escherichia coli; 64 µg/mL (≈ 186 µM) in the assay with Staphylococcus aureus [1]; 64 µg/mL (≈ 186 µM) in the assay on Staphylococcus aureus [2]. Also, the MIC was 256 µg/mL (≈ 744 µM) in the assay with Proteus vulgaris and 64 µg/mL (≈ 186 µM) in the assay on Micrococcus luteus. The MIC80 in the assay on Saccharomyces cerevisiae amounted to 128 µg/mL (≈ 372 µM); against Cyberlindnera jadinii, 64 µg/mL (≈ 186 µM); in the assay on Candida albicans it was 64 µg/mL (≈ 186 µM); with Candida it was 32 µg/mL (≈ 93 µM).

In the case of `COc1ccc2cc3[n+](cc2c1OCCN(CCn1ccnc1)Cc1ccc(F)cc1F)CCc1cc2c(cc1-3)OCO2.[Cl-]`, the MIC came out at 16 µg/mL in the assay on Bacillus spizizenii; 16 µg/mL in the assay with Shigella dysenteriae; 16 µg/mL against Pseudomonas aeruginosa; 32 µg/mL in the assay on Escherichia coli; 8 µg/mL with Staphylococcus aureus [1]; 16 µg/mL against Staphylococcus aureus [2]. The MIC against Proteus vulgaris and in the assay on Micrococcus luteus was 32 µg/mL in each case. In addition, the MIC80 against Saccharomyces cerevisiae, with Cyberlindnera jadinii, against Candida albicans and against Candida was 32 µg/mL in each case.

As for `Fc1ccc(CN(CCBr)CCn2cnc3ccccc32)c(F)c1`, the MIC is 256 µg/mL (≈ 649 µM) in the assay on Bacillus spizizenii; 64 µg/mL (≈ 162 µM) against Shigella dysenteriae; 128 µg/mL (≈ 325 µM) in the assay with Pseudomonas aeruginosa; 512 µg/mL (≈ 1300 µM) against Escherichia coli; 128 µg/mL (≈ 325 µM) with Staphylococcus aureus [1]; 256 µg/mL (≈ 649 µM) against Staphylococcus aureus [2]. Further, the MIC in the assay with Proteus vulgaris was determined as 512 µg/mL (≈ 1300 µM); against Micrococcus luteus, 256 µg/mL (≈ 649 µM). Besides, the MIC80 against Saccharomyces cerevisiae came to 128 µg/mL (≈ 325 µM); in the assay on Cyberlindnera jadinii, 128 µg/mL (≈ 325 µM); in the assay on Candida albicans, 128 µg/mL (≈ 325 µM); against Candida, 64 µg/mL (≈ 162 µM).

For the compound `COc1ccc2cc3[n+](cc2c1OC)CCc1cc2c(cc1-3)OCO2` [BERBERINE], the MIC against Bacillus spizizenii and in the assay on Micrococcus luteus was above 512 µg/mL throughout. Moreover, the MIC80 with Saccharomyces cerevisiae was 128 µg/mL; in the assay on Cyberlindnera jadinii, 256 µg/mL; against Candida albicans, above 512 µg/mL; in the assay with Candida it was 128 µg/mL.

For `O=C(N[C@H](CO)[C@H](O)c1ccc([N+](=O)[O-])cc1)C(Cl)Cl` [CHLORAMPHENICOL], the MIC against Bacillus spizizenii is 32 µg/mL (≈ 99 µM); in the assay with Micrococcus luteus, 8 µg/mL (≈ 24.8 µM).

For the compound `OC(Cn1cncn1)(Cn1cncn1)c1ccc(F)cc1F` [FLUCONAZOLE], the MIC80 was 16 µg/mL (≈ 52.2 µM) with Saccharomyces cerevisiae, 8 µg/mL (≈ 26.1 µM) against Cyberlindnera jadinii, 1 µg/mL (≈ 3.27 µM) in the assay with Candida albicans and 4 µg/mL (≈ 13.1 µM) against Candida.

Turning to `CCn1cc(C(=O)O)c(=O)c2cc(F)c(N3CCNCC3)cc21` [NORFLOXACIN], the MIC with Bacillus spizizenii is 1 µg/mL (≈ 3.13 µM); against Micrococcus luteus, 2 µg/mL (≈ 6.26 µM).
